Converted amounts (≈) assume the structure as drawn. Where only a bound is given, the exact number is not on record here.

Results on 77 compounds are retold here after PubChem BioAssay AID1996.

The conditions of the data set: buffer; pH 7.4; 200.0 µM.
Consider `CCc1ccc(NC(=O)NCc2ccc3c(c2)OCO3)cc1`, for which the kinetic solubility (commonly solubility judged after dilution from a stock solution rather than from solid) was 0.6 µg/mL (≈ 2.01 µM).
In the case of `CCN(CC)C(=O)CN1C(=O)c2cccc3cccc1c23` it was greater than 42.4 µg/mL; in that of `CC(=O)Nc1ccc(Oc2cncc(Cl)c2)nc1`, greater than 39.6 µg/mL; in that of `CC1CCC/C(=C\Nc2ccc(C(=O)O)c(O)c2)C1=O` (configuration not stated), 39.4 µg/mL (≈ 143 µM).
The value for `O=C(NC1CC1)c1cc2cc(Br)ccc2s1` was less than 0.6 µg/mL; that for `COc1ccccc1CNC(=O)CN(C)CC(=O)Nc1ccccc1Br` was greater than 63 µg/mL.
The value for `CCC(C)[C@H](NC(=O)NCc1cccnc1)C(=O)OC` (some centres not stated) was 41.5 µg/mL (≈ 149 µM).
`CCc1noc(C)c1C(=O)OCC(=O)c1ccc(NC(C)=O)cc1F`: the kinetic solubility came out at 9.1 µg/mL (≈ 26.1 µM).
In the case of `CN1CCc2c(OCc3ccc(F)cc3)cccc2C1=O` it was 36.8 µg/mL (≈ 129 µM).
In the case of `Cn1cnnc1SCC(=O)Nc1ccccc1Oc1ccccc1` it was greater than 51.1 µg/mL; in that of `CC(CC(=O)O)CC(=O)Nc1cc([N+](=O)[O-])ccc1O` (configuration not stated), greater than 42.3 µg/mL; in that of `CC1CCCCN1C(=O)CCn1c(=S)oc2ccccc21` (configuration not stated), 43.9 µg/mL (≈ 144 µM).
In turn, `Cc1ccc(N2CCN(C(=O)NC3CCCCC3)CC2)c(C)c1` returned a kinetic solubility of 1.6 µg/mL (≈ 5.07 µM).
`O=C(NC1CCS(=O)(=O)C1)c1ccccc1Cl` (configuration not stated) showed a solubility (kinetic) greater than 41.1 µg/mL.
Turning to `O=C(CN1CCCCCC1)Nc1ccc(Br)cn1`, the kinetic solubility is 33.7 µg/mL (≈ 108 µM).
The value for `O=[N+]([O-])c1ccc(NCc2ccc3c(c2)OCO3)cc1` was less than 0.3 µg/mL; that for `CNC(=S)N1CCc2sccc2C1C` (configuration not stated) was greater than 34 µg/mL.
`CC(=O)c1cc(CN2CCN(C(C)C)C(CCO)C2)cs1` (configuration not stated): the solubility (kinetic) was 35.7 µg/mL (≈ 115 µM).
In the case of `Cc1ccc(/C=N\NC(=O)C2CC(=O)N(c3ccccc3)C2)o1` (configuration not stated) it was greater than 46.7 µg/mL; in that of `CC(=O)c1ccc(Sc2ccccc2)c([N+](=O)[O-])c1`, 3.1 µg/mL (≈ 11.3 µM).
On to `Cc1c(C)c2ccc(OCC(=O)N3CCOCC3)c(C)c2oc1=O`, for which the kinetic solubility is greater than 49.7 µg/mL.
The value for `CNC(=O)CSc1nnc(-c2ccccc2)n1C` was greater than 39.3 µg/mL; that for `O=C(Nc1ccccc1)OCCOc1cccc(Br)c1` was 6.6 µg/mL (≈ 19.6 µM).
The value for `Clc1ncccc1OCc1ccccc1` was 14.6 µg/mL (≈ 66.5 µM).
In the case of `O=C(/C=C/c1ccccc1)N1CCOCC1` it was greater than 32.6 µg/mL.
Compound `COc1cc(C(=O)NCCNC(=O)C2CCCNC2=O)cc(OC)c1OC` (configuration not stated) displayed a solubility (kinetic) greater than 56.9 µg/mL.
In turn, `CCCCCCC1CC(=O)NC(=S)N1` (configuration not stated) showed a kinetic solubility of 28.4 µg/mL (≈ 133 µM).
In the case of `COc1cccc(C2(O)CCN(CC(=O)NCC3CC3)CC2)c1` it was greater than 47.8 µg/mL; in that of `CCOc1ccc(N2C(=O)Cc3ccccc3C2=O)cc1`, 26.9 µg/mL (≈ 95.6 µM).
In the case of `Cc1ccc(C(=O)NC(=S)Nc2ccc3[nH]c(=O)[nH]c3c2)c(C)c1` it was less than 0.2 µg/mL.
Consider `CCCC1c2ccsc2CCN1C(=S)NC` (configuration not stated), for which the solubility (kinetic) came to 29.8 µg/mL (≈ 117 µM).
Compound `O=Cc1ccc2c(c1)CCN2Cc1ccccc1` registered a kinetic solubility of 15.2 µg/mL (≈ 64.1 µM).
In the case of `O=C(O)Cc1c(-c2ccccc2)c2cc(Cl)ccc2[nH]c1=O` it was greater than 47.1 µg/mL; in that of `O=C1OCc2ccc(NC(=O)c3sccc3Cl)cc21`, less than 0.6 µg/mL; in that of `COc1ccccc1Nc1nc(-c2cccnc2)cs1`, 1 µg/mL (≈ 3.53 µM).
In the case of `CC12CC3CC(C)(C1)CC(C(=O)NCc1ccncc1)(C3)C2` it was greater than 44.8 µg/mL; in that of `N#Cc1ccc(OCc2ccc(C(=O)O)o2)cc1`, greater than 36.5 µg/mL.
The value for `S=C(NCCc1ccccn1)NC1CC2CCC1C2` (configuration not stated) was greater than 41.3 µg/mL; that for `Cc1cc(C)cc(NC(=O)C2CCN(S(C)(=O)=O)CC2)c1` was 38.8 µg/mL (≈ 125 µM).
Turning to `Clc1ccc(C2Nc3cccc4cccc(c34)N2)cc1`, the kinetic solubility worked out at 7.7 µg/mL (≈ 27.4 µM).
In the case of `CC1=C/C(=C/N(C)C)C(=O)O1` it was 15.7 µg/mL (≈ 102 µM).
In the case of `O=C(COC(=O)c1nsc(Cl)c1Cl)NC1CCCCC1` it was greater than 50.6 µg/mL; in that of `Cc1ccc(C)c(NC(=O)CSc2cccc3cccnc23)c1`, 2.2 µg/mL (≈ 6.82 µM).
`OCCN(CCO)c1ccc2ccccc2c1` displayed a kinetic solubility greater than 34.7 µg/mL.
The value for `O=C(CSc1nccc(-c2cccs2)n1)Nc1ccc(F)c(Cl)c1` was 1.4 µg/mL (≈ 3.69 µM); that for `Cc1cc(C(=O)Nc2ccccc2Cc2ccccc2)no1` was 2.8 µg/mL (≈ 9.58 µM); that for `N#Cc1cccc(NC(=O)CN2CCCCCC2)c1` was greater than 38.6 µg/mL.
Take `O=C(NCC1CCN(S(=O)(=O)c2ccccc2)CC1)Nc1ccccc1`: the kinetic solubility stood at 3.6 µg/mL (≈ 9.64 µM).
The value for `O=c1c2[nH]c3ccc(F)cc3c2ncn1CCC1=CCCCC1` was less than 0.2 µg/mL; that for `O=C(NCCS(=O)(=O)N1CCCCCC1)c1ccccc1` was greater than 46.6 µg/mL.
The value for `CN(C)C(=O)c1cc(C(=O)c2ccc(Cl)cc2Cl)c[nH]1` was 23.4 µg/mL (≈ 75.2 µM); that for `CCc1ccc(NC(=O)CCC(=O)c2ccc(C)cc2)cc1` was 4.3 µg/mL (≈ 14.6 µM); that for `COc1ccc(CCC(C)NCc2ccc(Cl)c(Cl)c2)cc1` (configuration not stated) was 17.3 µg/mL (≈ 51.1 µM).
In the case of `CN1C(=O)/C(=C/c2ccc(OCc3cccc(F)c3)cc2)NC1=S` it was less than 0.4 µg/mL; in that of `Cl.OC1(CNCc2ccccc2)C2CC3CC(C2)CC1C3` (configuration not stated), greater than 46.2 µg/mL; in that of `O=C(CS(=O)(=O)c1ccccc1)NC1CCCCC1`, greater than 42.2 µg/mL.
The compound `O=C(c1ccc(-n2cccn2)cc1)N1CCc2ccccc2C1` displayed a solubility (kinetic) greater than 45.5 µg/mL.
The value for `O=C(O)C1CCCN1C(=O)OCC1c2ccccc2-c2ccccc21` (configuration not stated) was greater than 50.6 µg/mL; that for `Cc1ccc(C(=O)Nc2ccc3[nH]c(=O)[nH]c3c2)c(C)c1` was 3.9 µg/mL (≈ 13.9 µM); that for `CC1CC(C)CN(C(=O)COC(=O)c2cncc(Br)c2)C1` (configuration not stated) was 42.4 µg/mL (≈ 119 µM).
In the case of `COc1ccc(CCNC(=O)CSc2nc3scc(-c4ccccc4)c3c(=O)[nH]2)cc1` it was 2 µg/mL (≈ 4.43 µM); in that of `CCOc1ccc2nc(NS(=O)(=O)c3cccs3)sc2c1`, 9.9 µg/mL (≈ 29.1 µM); in that of `CC(=O)c1c(C)[nH]c(C(=O)Nc2ccccn2)c1C`, greater than 38.6 µg/mL.
On to `O=C(O)c1ccc2c(c1)C(=O)N(Cc1ccco1)C2=O`, for which the kinetic solubility is greater than 40.7 µg/mL.
The value for `C=CCn1c(SCC(=O)Nc2c(C)n(C)n(-c3ccccc3)c2=O)nnc1-c1cccnc1` was greater than 69.2 µg/mL; that for `O=c1[nH]c2ccccc2nc1C(F)(F)F` was greater than 32.1 µg/mL.
The value for `CCN(CC)S(=O)(=O)c1ccc2[nH]c(=O)c3ccccc3c2c1` was less than 0.4 µg/mL; that for `Cc1ccc(C)c(OC(=O)CN2C(=O)c3ccccc3C2=O)c1` was 4 µg/mL (≈ 12.9 µM).
The value for `O=C(Nc1ccc2nc3n(c(=O)c2c1)CCCC3)c1ccccc1F` was 48 µg/mL (≈ 142 µM).
Consider `Cc1nc2c(C)cccc2c2c1COC2`, for which the solubility (kinetic) stood at 18.4 µg/mL (≈ 92.3 µM).
The value for `O=C1NC(c2ccccc2O)Nc2ccccc21` (configuration not stated) was 34.8 µg/mL (≈ 145 µM); that for `CC(=O)c1cccc(NC(=O)Nc2ccc3c(c2)CCC3)c1` was 0.3 µg/mL (≈ 1.02 µM).
In the case of `C/C(=N/O)c1cccc(N2Cc3ccccc3C2)c1` it was 22.2 µg/mL (≈ 88 µM); in that of `O=C1CCCN1CC(O)CS(=O)(=O)Cc1ccccc1Cl` (configuration not stated), greater than 49.8 µg/mL.
In the case of `CC(=O)Nc1cccc(C(=O)/C=C/c2ccc[nH]2)c1` it was greater than 38.1 µg/mL; in that of `Cc1cccc(N2C(=O)CC(Sc3nccc(C)n3)C2=O)c1` (configuration not stated), greater than 47 µg/mL; in that of `CC(C)C(=O)Nc1ccc(NC(=O)c2ccc3c(c2)OCO3)cc1`, less than 0.3 µg/mL.
